The NIST ThermoML archive (doi:10.1021/je2013704)

Experiment: mn = molality of the nth substance listed, in mol/kg
Conditions: Liquid, Vibrating tube method

[Cl-].[Cl-].[Mg+2] [magnesium chloride] + O
mass density [kg/m3]
Conditions | 283.15 K | 298.12 K | 323.07 K | 348.04 K | 372.99 K | 397.97 K | 422.94 K | 447.94 K | 472.96 K
1050 kPa, m1 = 1 | 1074.73 | 1070.86 | 1061.56 | 1049.32 | 1034.76 | 1017.83 | 999.03 | – | –
1050 kPa, m1 = 5 | – | 1298.01 | 1288.53 | 1278.25 | 1267.42 | 1255.66 | 1243.3 | 1230.19 | –
1100 kPa, m1 = 3 | 1200.48 | 1194.98 | 1185.53 | 1174.63 | 1162.6 | 1149.22 | 1134.62 | 1118.93 | –
10020 kPa, m1 = 1 | 1078.32 | 1074.43 | 1065.03 | 1052.8 | 1038.36 | 1021.72 | 1003.28 | 982.73 | 960.31
10020 kPa, m1 = 5 | – | 1300.39 | 1290.86 | 1280.63 | 1269.83 | 1258.16 | 1245.98 | 1232.81 | 1219.23
10100 kPa, m1 = 3 | 1203.26 | 1197.76 | 1188.36 | 1177.48 | 1165.51 | 1152.27 | 1137.91 | 1122.27 | 1105.72
19970 kPa, m1 = 1 | 1082.31 | 1078.17 | 1068.73 | 1056.56 | 1042.33 | 1025.91 | 1007.77 | 987.82 | 965.92
19970 kPa, m1 = 5 | – | 1302.84 | 1293.39 | 1283.18 | 1272.48 | 1260.88 | 1248.69 | 1235.76 | 1222.3
20100 kPa, m1 = 3 | 1206.45 | 1200.84 | 1191.36 | 1180.55 | 1168.64 | 1155.47 | 1141.36 | 1126 | 1109.63
29900 kPa, m1 = 1 | 1086.21 | 1081.96 | 1072.46 | 1060.31 | 1046.17 | 1029.97 | 1012.16 | 992.59 | 971.25
29900 kPa, m1 = 5 | – | 1305.37 | 1295.97 | 1285.71 | 1275.12 | 1263.46 | 1251.46 | 1238.61 | 1225.27
30100 kPa, m1 = 3 | 1209.48 | 1203.93 | 1194.33 | 1183.56 | 1171.77 | 1158.76 | 1144.67 | 1129.62 | 1113.5
39830 kPa, m1 = 1 | 1090.04 | 1085.7 | 1076 | 1063.92 | 1049.91 | 1033.96 | 1016.47 | 997.27 | 976.5
39830 kPa, m1 = 5 | – | 1307.91 | 1298.44 | 1288.26 | 1277.64 | 1266.15 | 1254.16 | 1241.42 | 1228.28
40100 kPa, m1 = 3 | 1212.45 | 1206.91 | 1197.32 | 1186.6 | 1174.82 | 1162.02 | 1147.96 | 1133.07 | 1117.27
49760 kPa, m1 = 1 | 1093.73 | 1089.34 | 1079.49 | 1067.47 | 1053.59 | 1037.86 | 1020.62 | 1001.73 | 981.41
49760 kPa, m1 = 5 | – | 1310.34 | 1300.8 | 1290.69 | 1280.15 | 1268.74 | 1256.84 | 1244.17 | 1231.18
50100 kPa, m1 = 3 | 1215.49 | 1209.79 | 1200.25 | 1189.47 | 1177.87 | 1165.1 | 1151.23 | 1136.51 | 1120.96
59680 kPa, m1 = 1 | 1097.42 | 1092.83 | 1082.98 | 1070.97 | 1057.17 | 1041.6 | 1024.61 | 1006.15 | 986.2
59680 kPa, m1 = 5 | – | 1312.81 | 1303.27 | 1293.17 | 1282.6 | 1271.25 | 1259.41 | 1246.88 | 1234.02
60100 kPa, m1 = 3 | 1218.46 | 1212.66 | 1203.13 | 1192.42 | 1180.77 | 1168.09 | 1154.39 | 1139.92 | 1124.6
68120 kPa, m1 = 1 | 1100.57 | 1095.78 | 1085.82 | 1073.88 | 1060.13 | 1044.71 | 1027.95 | 1009.73 | 990.1
68120 kPa, m1 = 5 | – | 1314.82 | 1305.22 | 1295.26 | 1284.68 | 1273.36 | 1261.6 | 1249.11 | 1236.38
68600 kPa, m1 = 3 | 1220.98 | 1215.18 | 1205.42 | 1194.89 | 1183.21 | 1170.63 | 1157.07 | 1142.62 | 1127.48
